From patent US20130225524A1, “Chemical Compounds” (priority 2010, published 2013) come the findings set out here.

pIC50: −log10 of the molar value. Structures can show the parent of a compound that is named as a salt.

The target of this assay is lactate dehydrogenase A (LDH-A) (Homo sapiens, UniProt P00338). As to the kind of experiment: biochemical.

Experimental: Assay buffer (50 mM potassium phosphate, pH 7.0, 50 mM NaCl, 0.25 mM CHAPS, 0.0025% BSA) is added to one column of a standard assay plate stamped with DMSO solutions of test compounds. A solution of LDH-A and NAD+ (final concentrations: 300 pM LDH-A and 150 uM NAD+) in assay buffer is added to remaining plate wells containing DMSO solutions of test compounds and DMSO only control wells and the mixtures incubated for 10 min at room temperature. A solution of lactate, resazurin, diaphorase (final concentrations: 2 mM lactate, 6.25 uM resazurin, 0.4 U/mL diaphorase) in assay buffer is added to all wells and the mixtures incubated for 30 min at room temperature. Stop solution (2 uL, components: assay buffer and 25 mM oxamate) is added to each well and the fluoresecence intensity increase (FLINT) measured at 590 nm on a ViewLux®imager.

`COc1ncc(-c2ccc3c(Nc4cc(C(=O)O)cc(C(C)C(C)C)c4)c(C(N)=O)cnc3c2)c(OC)n1` (stereo not shown) [Example 60, 3-({3-(aminocarbonyl)-7-[2,4-bis(methyloxy)-5-pyrimidinyl]-4-quinolinyl}amino)-5-(1,2-dimethylpropyl)benzoic acid, acetate salt] gave a pIC50 of 7.20.

A word on the pIC50: it is the negative decadic logarithm of the IC50, by convention in mol/L. Low readings indicate a large IC50, high ones a small IC50.
